Converted amounts (≈) assume the structure as drawn. Read-outs that look alike come from different tables or passages of the source.
What was measured:
PAMPA permeability = assay type: in vitro ADME
Solubility pH 7.4 = assay type: physicochemical; conditions: aqueous buffer
[1] = test system: Asexual parasites of P. falciparum strain 3D7; test: In vitro drug activity on asexual parasites (SYBR Green assay); assay type: cell-based; conditions: Plasmodium falciparum, read-out: Asexual EC50
Method in brief: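 3D7 asexual cultures at 0.5% parasitemia and 2% hematocrit were exposed to drug (DMSO <0.5%) for 72 h under standard culture conditions, in duplicate with no-drug and RBC-only controls. After freeze-thaw lysis, SYBR Green I lysis buffer was added for 30 min at room temperature; fluorescence was read at 490 nm excitation/520 nm emission.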

[2] = Microsomal stability (rat); assay type: in vitro ADME; conditions: rat microsomes
[3] = Table 1, P. falciparum 3D7 asexual stage, 72 h
[4] = Table 1, read-out: Microsomal Stability (rat) T1/2
[5] = Table 2, P. falciparum 3D7 asexual stage, 72 h
[6] = Table 2, read-out: Microsomal Stability (rat) T1/2
[7] = Table 3, read-out: Microsomal Stability (rat) T1/2
[8] = Table 3, P. falciparum 3D7 asexual stage, 72 h

Cc1ccc(C#N)cc1-n1c(=N)n(C)c2cnc3ccc(-c4cccc(O)c4)cc3c21 [Compound 37, 3-(8-(3-hydroxyphenyl)-2-imino-3-methyl-2,3-dihydro-1H-imidazo[4,5-c]quinolin-1-yl)-4-methylbenzonitrile]
Papp (PAMPA permeability; Table 1): 10.3 ×10⁻⁶ cm/s
solubility (Solubility pH 7.4; Table 1): > 40 µg/mL
EC50 [1, 3]: 46.1 nM
half-life [2, 4]: > 30 min

C/N=c1\ccc2cnc3ccc(-c4ccc(Cl)cc4)cc3c2n1-c1ccc(C(=O)NC2CC2)cc1
Papp (PAMPA permeability; Table 2): 130 ×10⁻⁶ cm/s
solubility (Solubility pH 7.4; Table 2): < 1 µg/mL
EC50 [1, 5]: 1210 nM
half-life [2, 6]: 17.4 min

Cc1cc(N2CCN(C)CC2)c(C#N)cc1-n1c(=N)n(C)c2cnc3ccc(-c4ccc(Cl)cc4)cc3c21 [Compound 108, 5-(8-(4-chlorophenyl)-2-imino-3-methyl-2,3-dihydro-1H-imidazo[4,5-c]quinolin-1-yl)-4-methyl-2-(4-methylpiperazin-1-yl)benzonitrile]
Papp (PAMPA permeability; Table 1): 255 ×10⁻⁶ cm/s
solubility (Solubility pH 7.4; Table 1): 37.6 µg/mL (≈ 72 µM)
EC50 [1, 3]: 464 nM
half-life [2, 4]: > 30 min

Cc1ccc(C#N)cc1-n1/c(=N/S(N)(=O)=O)n(C)c2cnc3ccc(-c4ccc(Cl)cc4)cc3c21 [Compound 100, (8-(4-chlorophenyl)-1-(5-cyano-2-methylphenyl)-3-methyl-1,3-dihydro-2H-imidazo[4,5-c]quinolin-2-ylidene)sulfonamide]
Papp (PAMPA permeability; Table 1): 236 ×10⁻⁶ cm/s
solubility (Solubility pH 7.4; Table 1): < 1 µg/mL
EC50 [1, 3]: 12.9 nM
half-life [2, 4]: > 30 min

Cc1ccc(Cl)cc1-n1c(=N)n(C)c2cnc3ccc(-c4ccc(Cl)cc4)cc3c21 [Compound 29, 1-(5-chloro-2-methylphenyl)-8-(4-chlorophenyl)-3-methyl-1,3-dihydro-2H-imdazo[4,5-c]quinolin-2-imine]
Papp (PAMPA permeability; Table 1): 1680 ×10⁻⁶ cm/s
solubility (Solubility pH 7.4; Table 1): < 1 µg/mL
EC50 [1, 3]: 136 nM
half-life [2, 4]: > 30 min

Cn1c(=N)n(-c2cncnc2)c2c3cc(-c4cccc(F)c4)ccc3ncc21
Papp (PAMPA permeability; Table 3): 60.6 ×10⁻⁶ cm/s
solubility (Solubility pH 7.4; Table 3): 24.9 µg/mL (≈ 67.2 µM)
EC50 ([1]; 3D7, 72 h): 169 nM
half-life [2, 7]: > 30 min

Cc1ccc(C#N)cc1-n1c(=N)n(C)c2cnc3ccc(-c4cnn(C)c4)cc3c21 [Compound 136, 3-(2-imino-3-methyl-8-(1-methyl-1H-pyrazol-4-yl)-2,3-dihydro-1H-imidazo[4,5-c]quinolin-1-yl)-4-methylbenzonitrile]
Papp (PAMPA permeability; Table 1): 89.5 ×10⁻⁶ cm/s
solubility (Solubility pH 7.4; Table 1): 40.4 µg/mL (≈ 103 µM)
EC50 [1, 3]: 56.1 nM
half-life [2, 4]: > 30 min

Cc1ccc(C#N)cc1-n1c(=N)n(C)c2cnc3ccc(-c4cccc(CN(C)C)c4)cc3c21 [Compound 24, 3-(8-(3-((dimethylamino)methyl)phenyl)-2-imino-3-methyl-2,3-dihydro-1H-imidazo[4,5-c]quinolin-1-yl)-4-methylbenzonitrile]
Papp (PAMPA permeability; Table 1): 405 ×10⁻⁶ cm/s
solubility (Solubility pH 7.4; Table 1): > 44 µg/mL
EC50 [1, 3]: 980 nM
half-life [2, 4]: > 30 min

Cc1ccc(C#N)cc1-n1c(=N)n(C)c2cnc3ccc(-c4ncc(Cl)cn4)cc3c21 [Compound 52, 3-(8-(5-chloropyrimidin-2-yl)-2-imino-3-methyl-2,3-dihydro-1H-imidazo[4,5-c]quinolin-1-yl)-4-methylbenzonitrile]
Papp (PAMPA permeability; Table 1): 1430 ×10⁻⁶ cm/s
solubility (Solubility pH 7.4; Table 1): > 42 µg/mL
EC50 [1, 3]: 444 nM
half-life [2, 4]: > 30 min

Cc1ccc(C#N)cc1-n1/c(=N/C#N)n(C)c2cnc3ccc(-c4ccc(N)nc4)cc3c21 [Compound 4, (E)-N-(8-(6-aminopyridin-3-yl)-1-(5-cyano-2-methylphenyl)-3-methyl-1,3-dihydro-2H-imidazo[4,5-c]quinolin-2-ylidene)cyanamide]
Papp (PAMPA permeability; Table 1): 34.1 ×10⁻⁶ cm/s
solubility (Solubility pH 7.4; Table 1): 3.7 µg/mL (≈ 8.6 µM)
EC50 [1, 3]: 11.9 nM
half-life [2, 4]: > 30 min

CNCc1cccc(-n2c(=N)n(C)c3cnc4ccc(-c5ccc(Cl)cc5)cc4c32)c1 [Compound 67, 1-(3-(8-(4-chlorophenyl)-2-imino-3-methy-2,3-dihydro-H-imidazo[4,5-c]quinolin-1-yl)phenyl)-N-methylmethanamine]
Papp (PAMPA permeability; Table 1): 48.1 ×10⁻⁶ cm/s
solubility (Solubility pH 7.4; Table 1): > 42 µg/mL
EC50 [1, 3]: 2990 nM
half-life [2, 4]: > 30 min

Cc1cc(C#N)c(C#N)cc1-n1c(=N)n(C)c2cnc3ccc(-c4ccc(Cl)cc4)cc3c21 [Compound 135, 4-(8-(4-chlorophenyl)-2-imino-3-methyl-2,3-dihydro-1H-imidazo[4,5-c]quinolin-1-yl)-5-methylphthalonitrile]
Papp (PAMPA permeability; Table 1): 397 ×10⁻⁶ cm/s
solubility (Solubility pH 7.4; Table 1): < 1 µg/mL
EC50 [1, 3]: 27 nM
half-life [2, 4]: > 30 min

Cc1ccc(C#N)cc1-n1c(=N)n(C)c2cnc3ccc(-c4ccc5[nH]ncc5c4)cc3c21 [Compound 107, 3-(2-imino-8-(1H-indazol-5-yl)-3-methyl-2,3-dihydro-1H-imidazo[4,5-c]quinolin-1-yl)-4-methylbenzonitrile]
Papp (PAMPA permeability; Table 1): 22.6 ×10⁻⁶ cm/s
solubility (Solubility pH 7.4; Table 1): > 42 µg/mL
EC50 [1, 3]: 12.9 nM
half-life [2, 4]: 22.9 min

Cc1ccc(C#N)cc1-n1c(=N)n(C)c2cnc3ccc(-c4ccccn4)cc3c21 [Compound 91, 3-(2-imino-3-methyl-8-(pyridin-2-yl)-2,3-dihydro-1H-imidazo[4,5-c]quinolin-1-yl)-4-methylbenzonitrile]
Papp (PAMPA permeability; Table 1): 1370 ×10⁻⁶ cm/s
solubility (Solubility pH 7.4; Table 1): > 39 µg/mL
EC50 [1, 3]: 423 nM
half-life [2, 4]: > 30 min

Cc1ncncc1-n1c(=N)n(C)c2cnc3ccc(-c4ccc(Cl)cc4)cc3c21
Papp (PAMPA permeability; Table 3): 1290 ×10⁻⁶ cm/s
solubility (Solubility pH 7.4; Table 3): 24.7 µg/mL (≈ 61.6 µM)
EC50 [1, 8]: 721 nM
half-life [2, 7]: > 30 min

CN(C)CCN1CCN(C(=O)c2ccc(-n3/c(=N\C#N)ccc4cnc5ccc(-c6ccc(Cl)cc6)cc5c43)cc2)CC1
Papp (PAMPA permeability; Table 2): 8.8 ×10⁻⁶ cm/s
solubility (Solubility pH 7.4; Table 2): 3.2 µg/mL (≈ 5.42 µM)
EC50 [1, 5]: 45.4 nM
half-life [2, 6]: > 30 min

COc1ccc(-c2ccc3ncc4c(c3c2)n(-c2cncnc2)c(=N)n4C)cn1
Papp (PAMPA permeability; Table 3): 684 ×10⁻⁶ cm/s
solubility (Solubility pH 7.4; Table 3): 34.5 µg/mL (≈ 90 µM)
EC50 [1, 8]: 1050 nM
half-life [2, 7]: > 30 min

Cc1nc(N2CCN(C)CC2)c(C#N)cc1-n1c(=N)n(C)c2cnc3ccc(-c4cccc(F)c4)cc3c21 [Compound 143, 5-(8-(3-fluorophenyl)-2-imino-3-methyl-2,3-dihydro-1H-imidazo[4,5-c]quinolin-1-yl)-6-methyl-2-(4-methylpiperazin-1-yl)nicotinonitrile]
Papp (PAMPA permeability; Table 1): 776 ×10⁻⁶ cm/s
solubility (Solubility pH 7.4; Table 1): > 50 µg/mL
EC50 [1, 3]: 374 nM
half-life [2, 4]: > 30 min

Cc1ccc(C#N)cc1-n1c(=N)n(C)c2cnc3ccc(-c4ccccc4O)cc3c21 [Compound 86, 3-(8-(2-hydroxyphenyl)-2-imino-3-methyl-2,3-dihydro-1H-imidazo[4,5-c]quinolin-1-yl)-4-methylbenzonitrile]
Papp (PAMPA permeability; Table 1): 7.9 ×10⁻⁶ cm/s
solubility (Solubility pH 7.4; Table 1): > 40 µg/mL
EC50 [1, 3]: 696 nM
half-life [2, 4]: > 30 min

Cc1ccc(C#N)cc1-n1c(=N)n(C)c2cnc3ccc(-c4ccnn4C)cc3c21 [Compound 5, 3-(2-imino-3-methyl-8-(1-methyl-1H-pyrazol-5-yl)-2,3-dihydro-1H-imidazo[4,5-c]quinolin-1-yl)-4-methylbenzonitrile]
Papp (PAMPA permeability; Table 1): 219 ×10⁻⁶ cm/s
solubility (Solubility pH 7.4; Table 1): 42.5 µg/mL (≈ 108 µM)
EC50 [1, 3]: 154 nM
half-life [2, 4]: > 30 min

Cc1cccc(-c2ccc3ncc4c(c3c2)n(-c2cc(C#N)ccc2C)c(=N)n4C)c1 [Compound 36, 3-(2-imino-3-methyl-8-(m-tolyl)-2,3-dihydro-1H-imidazo[4,5-c]quinolin-1-yl)-4-methylbenzonitrile]
Papp (PAMPA permeability; Table 1): 1150 ×10⁻⁶ cm/s
solubility (Solubility pH 7.4; Table 1): > 40 µg/mL
EC50 [1, 3]: 158 nM
half-life [2, 4]: 27 min
